Test results reported in paper PMC6412366, “The Limitations of Collagen/CPP Hybrid Peptides as Carriers for Cancer Drugs to FaDu Cells” (Molecules, 2019).

Tested on: FaDu cell surface
Experiment: Suramin wash (competitive binding) of FL8V1-treated FaDu cells
Assay type: cell-based, human
Settings: concluded from reversed incubation order
Protocol: FaDu cells were seeded into MatTek dishes (No. 1.5 coverglass, 35 mm). After the cells were at least 70% confluent, the media was removed and the cells were gently washed with PBS. […] The cells were washed twice with PBS. Additional EMEM medium was added before the cell cultures were imaged using confocal microscopy (λEX = 488 for FITC tag) using the 60X oil immersion objective.

Cc1ccc(C(=O)Nc2ccc(S(=O)(=O)O)c3cc(S(=O)(=O)O)cc(S(=O)(=O)O)c23)cc1NC(=O)c1cccc(NC(=O)Nc2cccc(C(=O)Nc3cc(C(=O)Nc4ccc(S(=O)(=O)O)c5cc(S(=O)(=O)O)cc(S(=O)(=O)O)c45)ccc3C)c2)c1 [suramin]
binding of suramin to the FaDu cell surface: does not bind
